System: NF-κB
Assay: Nuclear translocation of NF-κB in T cells (Western blot)
Type: cell-based
Settings: peptide 100 ng/ml for 2 hours, then anti-CD3 mAb 24 hr; human T cells
Description: To address the modulatory role of the wound fluid peptides on the signal transduction cascade leading to regulation of T-cell secretion of TNF-α(and IFN-γ, the nuclear translocation of NF-κB was detected by probing nuclear and cytoplasmic T-cell extracts using mAb specific for the p65 subunit of NF-κB. The nuclear protein Lamin B was used as continuatively expressed control protein for the quantification of protein amounts.
Human T cells. T cells were purified from the peripheral blood of healthy human donors (Blood Bank; Tel-Hashomer, Israel). The whole blood was incubated (20 min, 22° C.) with RosetteSep™ human T-cell enrichment cocktail (StemCell Technologies, Vancouver, BC, Canada). The remaining unsedimented cells were then loaded onto Lymphocyte Separation Medium (ICN Biomedicals; Belgium), isolated by density centrifugation, and washed with PBS. The purified cells (>95% CD3^+ T cells) so obtained were cultured in RPMI containing antibiotics and 10% heat-inactivated FCS. Western blot analysis of T-cell nuclear extracts. Purified T cells (5×10^6) were preincubated with the peptides (100 ng/ml) for 2 hours (37° C. in a 7% CO2, humidified atmosphere). The cells were then replated in 24-well plates pre-coated with anti-CD3 mAb for 24 hr (37° C. in a 7% CO2, humidified atmosphere). T cells were lysed in 10 mM HEPES, 1.5 mM MgCl2, 1 mM dithiothreitol (DTT), 1 mM PMSF, 0.5% Nonidet P-40. The lysates were incubated on ice for 10 min and centrifuged at 2000 rpm for 10 min at 4° C. The supernatants (cytoplasmic extracts) were transferred and the pellet (nuclei) was suspended in buffer containing 30 mM HEPES, 450 mM NaCl, 25% Glycerol, 0.5 mM EDTA, 6 mM DTT, 12 mM MgCl2 1 mM PMSF, 10 μg/ml leupeptin, 10 μg/ml pepstatin, 1% phosphatase inhibitor cocktail, and the suspension was incubated on ice for 30 min. The lysates were cleared by centrifugation (30 min, 14×10^3 rpm, 4° C.), and the resulting supernatants analyzed for protein content. […]

WDNLEKETEGL [peptide No. 3, residues 96-106 of Apo A-I; identified in wound fluids, then synthesized]
NF-κB translocation to the nucleus: significant down-regulation
